Several values for one entry are separate records, joined by “and”; a condition that tells them apart may be missing. Equal values may be shown once.
| SMILES | melting point |
| --- | --- |
| O=S1(=O)OC(c2cc(Br)c(O)c(Br)c2)(c2cc(Br)c(O)c(Br)c2)c2ccccc21 | 204 °C |
| C(=C\c1nn2c(COc3ccccc3)nnc2s1)/c1ccccc1 | 142 °C |
| CC(=O)O[C@@H]1[C@@H](OC(C)=O)[C@H](C)O[C@H](C#N)[C@@H]1OC(C)=O | 130 °C |
| C=C(C)[C@H]1Cc2c(ccc3c2O[C@@H]2COc4cc(OC)c(OC)cc4[C@@H]2C3=O)O1 | 166 °C |
| CC(=O)/C(=N/Nc1cccc(C(F)(F)F)c1)C(=O)C(F)(F)F | 86 °C |
| COc1cc2c(c(OC)c1OC)-c1ccc(OC)c(=O)cc1[C@@H](NC(C)=O)CC2 | 142 °C |
| CC(=O)O[C@@H]1CCC2(C)C(CCC3C2CCC2(C)C3CC[C@]2(O)/C=C/c2ccccc2)C1 (some centres undefined) | 162 °C |
| CC1(C)C2CCC1(C)C(O)/C2=C\CC(=O)O (centres undefined) | 52 °C |
| CC12CCC(/C(=C/Nc3ccccc3)C1=O)C2(C)C (centres undefined) | 166 °C |
| CC12CCC(/C(=C\Nc3ccccc3C(=O)O)C1=O)C2(C)C (centres undefined) | 112 °C |
| CC12CCC(C(O)=C/C1=N\Nc1ccccc1)C2(C)C (centres undefined) | 182 °C |
| CCCCCCCCCCCCCCCCCC(=O)O[C@H]1[C@H](O[C@@H]2[C@@H](C)[C@H](O[C@H]3C[C@@](C)(OC)[C@@H](O)[C@H](C)O3)[C@@H](C)C(=O)O[C@H](CC)[C@@](C)(O)[C@H](O)[C@@H](C)C(=O)[C@H](C)C[C@@]2(C)O)O[C@H](C)C[C@@H]1N(C)C | 102 °C |
| CCOC(=O)/C(=N\Nc1ccccc1)C(=O)C(F)(F)F | 81 °C |
| COC(=O)c1c(N)sc2c1CCCC2 | 128 °C |
| CCNc1nc(NC(C)(C)C)nc(SC)n1 | 104 °C |
| C[Si]1(C)O[Si](C)(C)O[Si](C)(C)O[Si](C)(C)O[Si](C)(C)O1 | -44 °C |
| Cc1cc(C(F)(F)F)n2nc(N)c(/N=N/c3c(Br)cc(Br)cc3Br)c2n1 | 99 °C |
| Cl/C(Cl)=C/C3C(C(=O)OC(C#N)c2cccc(Oc1ccccc1)c2)C3(C)C (centres undefined) | 68.5 °C |
| Cl/C(Cl)=C/C3C(C(=O)OCc2cccc(Oc1ccccc1)c2)C3(C)C (centres undefined) | 34 °C |
| COC1=CC(=O)CC(C)C12Oc1c(Cl)c(OC)cc(OC)c1C2=O (centres undefined) | 219 °C |
| CCOC(=O)c1ccc(NC(=O)C(F)(F)C(F)(F)C(F)(F)C(F)(F)C(F)(F)C(F)(F)C(F)(F)C(F)(F)F)cc1 | 136 °C |
| Fc1ccc(/C=N/n2c(S)nnc2C(F)(F)F)cc1 | 212 °C |

| SMILES | melting point |
| --- | --- |
| Fc1ccc(C2(Cn3cncn3)OC2c2ccccc2Cl)cc1 (centres undefined) | 125 °C |
| N#C/C(=C\c1ccc(Cl)cc1)c1nc(-c2ccccc2)cs1 | 104 °C |
| Cn1nc(CC#N)c2c(N)ncnc21 | 137 °C |
| c1ccc2c(c1)CC1(OCCO1)c1ccccc1CC21OCCO1 | 144 °C |
| O=C(/C(=N/Nc1cccnc1)C(=O)C(F)(F)F)c1cccs1 | 151 °C |
| C#CC1(O)CCC2C3CC=C4C=C(C(C)(C)C(=O)O)CCC4(C)C3CCC21C (centres undefined) | 259 °C |
| CCCC(O)(CCC)C1(C)CCC(C(=O)O)C(C)(C)O1 (centres undefined) | 112 °C |
| CC(=O)NC1C(OC(C)=O)OC(COC(C)=O)C(OC(C)=O)C1OC(C)=O (centres undefined) | 140 °C |
| CC(=O)OCC1OC(OCc2ccccc2)C(OC(C)=O)C(OC(C)=O)C1OC(C)=O (centres undefined) | 98 °C |
| CC12CCC(C(=CC=C3C(=O)C4(C)CCC3C4(C)C)C1=O)C2(C)C | 240 °C |
| CC12CCC(C1(C)C)C(CCCc1ccccc1)(C1(CCCc3ccccc3)C(=O)C3(C)CCC1C3(C)C)C2=O (centres undefined) | 162 °C |
| CC12CCC3C(CCC4(C)CC5(CCC34C)OCCO5)C1CCC2=O (centres undefined) | 159 °C |
| CC(NC(=O)COCCN1C(=O)c2ccccc2C1=O)C(=O)NC(CCC(=O)O)C(=O)O (centres undefined) | 194 °C |
| CCC1OC(=O)C(C)C(OC2CC(C)(OC)C(O)C(C)O2)C(C)C(OC2OC(C)CC(N(C)C)C2O)C(C)(O)CC(C)C(=O)C(C)C(O)C1(C)O (centres undefined) | 135 °C |
| C=C(C)[C@@H]1CCC2=CC(=O)C[C@@H](C)[C@]2(C)C1 | 36.9 °C |
| OC[C@H]1O[C@H](O[C@H]2[C@H](O)[C@@H](O)[C@@H](O[C@H]3[C@H](O)[C@@H](O)C(O)O[C@@H]3CO)O[C@@H]2CO)[C@H](O)[C@@H](O)[C@@H]1O (some centres undefined) | 133 °C |
| CSC(SC)=C1CCCC(=C(SC)SC)C1=C(C#N)C#N | 156 °C |
| CCSC(SCC)C(OC(C)=O)C(OC(C)=O)C(OC(C)=O)C(COC(C)=O)OC(C)=O (centres undefined) | 112 °C |
| [C-]#[N+]c1cnn(-c2ncnc3c2cnn3C)c1/C=C/OCC | 155 °C |
| O[C@H](CS)[C@H](O)CS (racemic) [1,4-dithio-dl-threitol] | 42 °C |
| CC1CCC(C(C)C)C(O)C1 (racemic) [dl-menthol] | 29 °C |
| O[C@H]1CCCC[C@@H]1O (relative stereo) [trans-1,2-cyclohexanediol] | 104 °C |

The remaining lines, values ahead:

| melting point | SMILES |
| --- | --- |
| 158 °C | CC(CCc1oc2c(Br)cc(Br)cc2c1-c1ccc(C)o1)=NO |
| 87 °C | CCCCc1c2c(cc3c1-c1ccccc1OC3)CC(C)(C)CC2=O |
| 156 °C | C/C(=C(/C#N)c1nc2ccccc2s1)c1cc2ccccc2oc1=O |
| 157 °C | C/C(OC/C(=N/NC(N)=O)c1ccccc1)=C(\C#N)c1ccccc1 |
| 198 °C | CC(/C=C(\C)C#Cc1ccccc1)=N/Nc1ccc([N+](=O)[O-])cc1[N+](=O)[O-] |
| 125 °C | CC(=O)/C(=N/Nc1ccc(Cl)cc1)C(=O)C(F)(F)F |
| 163 °C | CC(=O)ON(/C=C1\C(=O)C2(C)CCC1C2(C)C)c1ccccc1 (centres undefined) |
| 163 °C | CC(C)CC1=C/C(=C/c2ccc(-c3ccc([N+](=O)[O-])cc3)o2)C(=O)O1 |
| 76 °C | CC(C)CC1=C/C(=C/c2ccc(-c3ccccc3)o2)C(=O)O1 |
| 141 °C | CC12CCC(C(=O)/C(=C\c3ccccc3[N+](=O)[O-])C1=O)C2(C)C (centres undefined) |
| 199 °C | Cc1ccc2c(c1)-c1c(cc3c(c1-c1ccccc1)C(=O)CC(C)(C)C3)CO2 |
| 194 °C | CCC1=C(/C=N/Nc2ccc([N+](=O)[O-])cc2[N+](=O)[O-])CCCC1 |
| 115 °C | CCCCCCCCCCOc1ccc(/C=N/c2ccc(/C=C/C(=O)OCC)cc2)cc1 |
| 176 °C | CCOC(=O)/C(C(N)=S)=C1/NN=C(c2ccc(Cl)cc2)O1 |
| 155 °C | CCOC(=O)Cc1cc(/C(=N/Nc2ccccc2)C(=O)OCC)c([N+](=O)[O-])cc1[N+](=O)[O-] |
| 129 °C | CN(C)c1ccc(/C=C(\C#N)c2nc(-c3cccc4ccccc34)cs2)cc1 |
| 153 °C | CN(C)c1ccc(/C=C2\C(=O)C3CCC(C)(C2=O)C3(C)C)cc1 (centres undefined) |
| 159 °C | C[Si](C)(C)c1c2c(cc3c1-c1ccccc1OC3)CCCC2=O |
| 194 °C | Cc1cc(C)c(NC(=O)CN(CC(=O)O)CC(=O)O)c(C)c1Br |
| 111 °C | Cc1ccc(-c2ccc(/C=C/C(=O)c3ccco3)o2)cc1 |
| 150 °C | Cc1ccc(-c2ccc(/C=C3\N=C(c4ccccc4)OC3=O)o2)cc1 |
| 79 °C | Cc1ccc(/C=C(/C#N)c2nc(-c3ccccc3)cs2)cc1 |
| 149 °C | Cc1ccc(/C=C(\C(N)=O)c2nc3ccccc3s2)cc1 |
| 300 °C | Cc1ccc(O)c(/N=N/c2c(O)cc(S(=O)(=O)O)c3ccccc23)c1 |
| 199 °C | Cc1ccccc1/N=N/c1ccc(/N=N/c2c(O)ccc3ccccc23)c(C)c1 |
| 267 °C | O=Cc1ccc2c(c1[N+](=O)[O-])C(=O)c1c(Cl)c(Cl)c(Cl)c(Cl)c1C2=O |
| 144 °C | O=C(O)c1ccc(N2C(=O)C3ON=C(C(=O)c4ccc(Cl)cc4)C3C2=O)cc1 (centres undefined) |
| 156 °C | Oc1cc(C(F)(F)F)n2nc(-c3ccc(Cl)cc3)cc2n1 |

| melting point | SMILES |
| --- | --- |
| 121 °C | O=C(Nc1ccc([N+](=O)[O-])cc1[N+](=O)[O-])C(C(F)(F)F)C(F)(F)F |
| 55 °C | O=C(/C=C1\Cc2ccccc21)c1ccccc1 |
| 133 °C | CN(C)c1ccc([N+]([O-])=CC(=O)c2ccc(C(=O)C=[N+]([O-])c3ccc(N(C)C)cc3)cc2)cc1 |
| 116 °C | CCCCC(=O)N(Cc1ccc(-c2ccccc2-c2nnn[nH]2)cc1)C(C(=O)O)C(C)C (centres undefined) |
| 147 °C | CC(C)(C)c1ccc(C2CCC3(CC2)Cc2ccc(C(=O)Nc4ccccc4OCCCC(=O)O)cc2C3)cc1 (centres undefined) |
| 49 °C | O=C(O)CCc1ccccc1 |
| 134 °C | Cc1ccc(C)c(C(=O)O)c1 |
| 211 °C | O=C(O)c1cc(Cl)ccc1/N=N/C1SC(=S)NC1=O (centres undefined) |
| 124 °C | CCOC(=O)c1cc(-c2ccccc2)n(-c2ccc(Cl)cc2Cl)n1 |
| 5 °C | CCCCOC(=O)[C@@H](C)Oc1ccc(Oc2ccc(C(F)(F)F)cn2)cc1 |
| 250 °C | O=C1OC(=O)C23Cc4ccccc4CC12Cc1cc2c(cc1C3)CC2 (centres undefined) |
| 142 °C | CCOC(=O)c1cc2c(oc1=O)-c1ccc(OC)cc1CC2 |
| 113 °C | O=[N+]([O-])c1ccc(-c2nnc3sc(/C=C/c4ccccc4)nn23)cc1 |
| 161 °C | CC(CCc1oc2ccc([N+](=O)[O-])cc2c1-c1ccc(C)o1)=NO |
| 177 °C | CC1(C)OC(=O)C(=Cc2cccc([N+](=O)[O-])c2)C(=O)O1 |
| 129 °C (2×) and 128 °C | COc1cc(/C=C/C(=O)c2ccccc2O)ccc1O |
| 124 °C | CC(C)(C)NCC(O)COc1cccc2c1CC(O)C(O)C2 (centres undefined) |
| 104 °C | COc1ccc2c(c1)CC1(CCC(O)(c3ccc(C(C)(C)C)cc3)CC1)C2O (centres undefined) |
| 131 °C | CC(C)(C)c1ccc(C2CCC3(CC2)Cc2ccc(O)cc2C3)cc1 (centres undefined) |
| 205 °C | CCOC(=O)C1=C(C)NC(=S)NC1c1ccccc1 (centres undefined) |
| 136 °C | CC(O[S+]([O-])C(C)(C)C)C(O)(c1ccccc1)c1ccccc1 (centres undefined) |
| 190 °C | CC(Cc1oc2c(c3c(c4ccccc42)OC2CC(=O)OC32)c(=O)c1[Si](C)(C)C)O[Si](C)(C)C(C)(C)C (centres undefined) |
| 132 °C | CC(CC1CC(=O)c2c3c(c4ccccc4c2O1)OC1CC(=O)OC31)O[Si](C)(C)C(C)(C)C (centres undefined) |
| 201 °C | O=C(O)c1cnn(-c2ccc([N+](=O)[O-])cc2)c1C(F)(F)F |
| 186 °C | COc1ccc(-c2csc(C(C#N)=Cc3ccc(O)cc3)n2)cc1 |
| 141 °C | COc1ccc(-c2csc(C(C#N)=Cc3cccs3)n2)cc1 |
| 233 °C | N[C@@H](Cc1ccc(F)c(F)c1)C(=O)O (racemic) [3,4-difluoro-dl-phenylalanine] |

Reference: the Bradley open melting point set (2014)
